For test [1], the system named is Atg7 wild-type (Atg7+/+) mouse embryonic fibroblasts. As to the kind of experiment: Annexin V/PI flow cytometry cell death, Atg7+/+ MEFs. The class given is cell-based. As to conditions: 2 μM, 24 h, FIG. 6B. The protocol: Cell viability is measured using an annexin V staining kit (BD Biosciences, San Jose, Calif., USA). Briefly, Atg7 wild-type (Atg7+/+ or Atg7-wt) and Atg7 deficient (Atg7−/− or Atg7-ko) mouse embryonic fibroblasts (MEFs) are treated with the 2 μM pomiferin for 24 h. Cells are then harvested and analysed by multiparametric flow cytometry using FITC-Annexin V and Propidium iodide staining (BD Biosciences, San Jose, Calif., USA) according to the manufacturer's instructions. Flow cytometry is then carried out using a FACSCalibur flow cytometer (BD Biosciences, San Jose, Calif., USA). Data acquisition and analysis is performed with CellQuest (BD Biosciences, San Jose, Calif., USA). Data are obtained from three independent experiments.

Test [2] relates to Bax-Bak DKO MEFs. As to the kind of experiment: Annexin V/PI flow cytometry cell death, Bax-Bak DKO MEFs. As to conditions: 24 h. It is filed as cell-based, mouse. As for the experimental part: Cell death is measured using an annexin V staining kit (BD Biosciences, San Jose, Calif., USA). Briefly, Bax-Bak wild-type and Bax-Bak DKO MEFs are treated with the 5 μM pomiferin for 24 h. Cells are then harvested and analysed by multiparametric flow cytometry using FITC-Annexin V and Propidium iodide staining (BD Biosciences, San Jose, Calif., USA) according to the manufacturer's instructions. Flow cytometry is then carried out using a FACSCalibur flow cytometer (BD Biosciences, San Jose, Calif., USA). Data acquisition and analysis is performed with CellQuest (BD Biosciences, San Jose, Calif., USA). Data are obtained from three independent experiments. Cell death is measured using an annexin V staining kit (BD Biosciences, San Jose, Calif., USA). Briefly, Bax-Bak DKO MEFs are treated with the 5 μM pomiferin in the presence or absence of 5 mM autophagic inhibitor 3-MA for 24 h. Cells are then harvested and analysed by multiparametric flow cytometry using FITC-Annexin V and Propidium iodide staining (BD Biosciences, San Jose, Calif., USA) according to the manufacturer's instructions. Flow cytometry is then carried out using a FACSCalibur flow cytometer (BD Biosciences, San Jose, Calif., USA). Data acquisition and analysis is performed with CellQuest (BD Biosciences, San Jose, Calif., USA). Data are obtained from three independent experiments.
On the technique in general: Flow cytometry measures light scatter and fluorescence of single cells or particles in a stream.

Test [3] concerns Hep3B, HepG2, H1299, MCF-7, A549 cancer cells and normal human hepatocyte (LO2). The test is described as follows: Endogenous LC3 puncta immunofluorescence in cancer and normal cells. It is filed as cell-based. Conditions: 10 μM, FIG. 2. The protocol: The detection of endogenous LC3 puncta formation is conducted using immunofluorescence staining method as described below. In brief, pomiferin-treated cancer cells (Hep3B, HepG2, H1299, MCF-7 and A549) or normal human hepatocyte (LO2) on cover slips are fixed with 4% paraformaldehyde (Sigma) for 20 min at room temperature and then rinsed with PBS. Immerse coverslips in methanol at room temperature for 2 min. After ishing with PBS, the cells are then incubated with anti-LC3 (1:200) in TBST (100 mM Tris HCl, pH 7.5, 150 mM NaCl, 0.05% Tween 20 and 5% BSA) overnight at 4. […] The coverslips are then mounted with FluorSave™ mounting media (Calbiochem, San Diego, Calif., USA) for fluorescence imaging and localization of LC3 autophagosomes are captured under the API Delta Vision Live-cell Imaging System (Applied Precision Inc., GE Healthcare Company, Washington, USA). To quantify autophagy, guidelines are followed to monitor autophagy^20, the percentage of cells with punctuate LC3 immunofluorescence staining is calculated by counting the number of the cells showing the punctuate pattern of LC3 fluorescence (>10 dots/cell) in immunofluorescence positive cells over the total number of cells in the same field. A minimum of 1000 cells from randomly selected fields are scored.

Test [4] concerns H1299 (human lung cancer) cells. As to the kind of experiment: MTT cytotoxicity assay, H1299. As to conditions: NCI-H1299, 72 h, 3 days, read-out: Means of IC50. The class given is cell-based. As for the experimental part:
Pomiferin is dissolved in DMSO at a final concentration of 100 mmol/L and stored at −20° C. Cytotoxicity is assessed using the 3-(4,5-dimethylthiazol-2-yl)-2,5-diphenyltetrazolium bromide assay. 4000-8000 HeLa (human cervical cancer), MCF-7 (human breast cancer), HepG2 and Hep3B (human liver cancer), H1299 and A549 (human lung cancer), LNCap (human prostate cancer) and LLC-1 (mouse Lewis lung carcinoma) cells are seeded on 96-well plates per well. After overnight pre-incubation, the cells are exposed to different concentrations of pomiferin ([…]) for 3 days. Subsequently, 10 μL of MTT reagents is added to each well and incubated at 37° C. for 4 hours followed by the addition of 100 μL solubilization buffer (10% SDS in 0.01 mol/L HCl) and overnight incubation. Absorbance at 585 nm is determined from each well the next day. The percentage of cell viability is calculated using the following formula: Cell viability (%)=Cells number treated/Cells number DMSO control×100. Data are obtained from three independent experiments.
On the technique in general: Formazan colour is commonly taken as a measure of viable cells.

On to `CC(C)=CCc1c2c(c3occ(-c4ccc(O)c(O)c4)c(=O)c3c1O)C=CC(C)(C)O2` [pomiferin], for which the “cell death (in words)” value in test [1] is “markedly induce cell death”; in test [2] (5 μM pomiferin alone, Bax-Bak DKO cells, FIG. 8B), “significantly induced cell death”. For the same compound, the cell death in test [2] (5 μM, annexin V flow cytometry, Bax-Bak DKO MEFs) is listed as around 80%. The TRITC-LC3 puncta formation entry in test [3] was “induces TRITC-LC3 puncta formation in all tested cancer and normal cells”. Besides, the half-inhibitory concentration (IC50) in test [4] worked out at 16.3 µM.

For orientation: IC50 means the point on the concentration scale where inhibition reaches its midpoint.

Source of the values: patent US20170014375A1, “PHARMACEUTICAL COMPOSITION COMPRISING EFFECTIVE DOSE OF POMIFERIN FOR TREATING CANCERS” (Macau University of Science and Technology, priority 2015, published 2017).
